In US20240199755A1, “ANTAGONISTS AND AGONISTS OF THE TRANSFERRIN RECEPTOR-2 FOR USE IN THE TREATMENT OF DISEASES OF THE BONE” (Kymab Limited, priority 2018, published 2024):
“Also recorded” adds a separate entry of the source.

Columns and labels:
[1] = system: trauma-induced heterotopic ossification; assay: Trauma-potentiated (drop-weight) heterotopic ossification model; format: in vivo; conditions: WT mice; after three weeks; Tfr2-ECD single dose, palovarotene or ibuprofen daily
Description: For systemic Tfr2-ECD treatment, WT mice were treated every other day with Tfr2-ECD intraperitoneally for two weeks. Mice received 250 μg Tfr2-ECD (10 mg/kg BW) per injection for the first 10 days after BMP-2/matrigel injection into the muscle and 125 μg per injection (5 mg/kg BW) for the remaining time. This experiment was performed once with 8-10 mice per group. Drop-weight HO: This experiment was performed according to Liu et al. with minor modifications^65. Female 10-12-week-old WT mice were anesthetized and placed on a ridge of a plastic container over which the right leg was bent so the femur was lying horizontally. Mice received an injection of 1 μg BMP-2 mixed in 50 μl matrigel. Afterwards, a stainless-steel ball of 16 g (16 mm diameter) was dropped from a distance of 80 cm height onto the quadriceps muscle. Mice either received a single dose of 1 μg Tfr2-ECD, which was co-injected with the BMP-2/matrigel mixture, or palovarotene (Hycultec), which was administered daily by oral gavage. Palovarotene was dissolved in DMSO and diluted 1:4 with corn oil. Mice received palovarotene at a dose of 100 μg/mouse for the first five days and 50 μg/mouse for the remainder of the experiment (days 621). One group of mice received ibuprofen via the drinking water at a dose of […] which was changed every other day^66. […]

[2] = system: BMP-2-induced heterotopic ossification; assay: BMP-2-induced heterotopic ossification (HO) mouse model; format: in vivo, mice; conditions: WT mice; day 8; systemic treatment; Safranin O staining
Description: Male and female C57BL/6 mice are used for the HO model. The HO is triggered by injecting BMP-2 into the muscle (Wosczyna et al. 2012).
All the mice are fed with standard feed and water ad libitum and are kept in groups of five mice per cage. The mice are exposed to a 12-hour light/dark cycle and air cooling to 23° C. (no special pathogen-free room). Enrichment is provided in the form of cardboard houses and bedding material. The mice are randomly divided into the different treatment groups and the assays are subsequently carried out as blind experiments.
The HO is examined by means of treatment using 2.5 μl of a 1 mg/ml recombinant BMP-2 solution (Thermo Fisher Scientific) or 2.5 μl of a 1 mg/ml Tfr2-ECD mixed with 47.5 μl Matrigel (BD Bioscience) at 0° C. For combination treatment, 2.5 of a 1 mg/ml recombinant BMP-2 solution is mixed with 2.5 μl of a 1 mg/ml Tfr2-ECD and 45 μl Matrigel. The Matrigel mixtures are injected into the musculus tibialis anterior of 10-week-old female wild-type mice. The legs are examined after two weeks.
The bone microarchitecture is analyzed using vivaCT40 (Scanco Medical, Switzerland). The entire lower leg bones are measured at a resolution of 10.5 μm using X-rays of 70 kVp, […] and at an integration time of 200 s. Predefined scripts from Scanco are used to analyze the bone (#1). […]

Tfr2-ECD = target: T1, Tfr2-ECD (Mus musculus, UniProt Q9JKX3); assay: SPR binding of holo-Tf and BMP receptors to Tfr2-ECD immobilized on the sensor chip; design: species or system murine; conditions: 200 nM BMP receptors; binding level normalized to molecular weight
T1 construct: full-length extracellular domain (ECD, aa 103-798) of murine Tfr2; His (N); MBP (N); c3 (protease site between MBP and ECD) (N); made in house; host or cells: Sf9 insect cells (baculovirus, pOCC211-Tfr2-ECD)
T1 sequence (Q9JKX3 103-798): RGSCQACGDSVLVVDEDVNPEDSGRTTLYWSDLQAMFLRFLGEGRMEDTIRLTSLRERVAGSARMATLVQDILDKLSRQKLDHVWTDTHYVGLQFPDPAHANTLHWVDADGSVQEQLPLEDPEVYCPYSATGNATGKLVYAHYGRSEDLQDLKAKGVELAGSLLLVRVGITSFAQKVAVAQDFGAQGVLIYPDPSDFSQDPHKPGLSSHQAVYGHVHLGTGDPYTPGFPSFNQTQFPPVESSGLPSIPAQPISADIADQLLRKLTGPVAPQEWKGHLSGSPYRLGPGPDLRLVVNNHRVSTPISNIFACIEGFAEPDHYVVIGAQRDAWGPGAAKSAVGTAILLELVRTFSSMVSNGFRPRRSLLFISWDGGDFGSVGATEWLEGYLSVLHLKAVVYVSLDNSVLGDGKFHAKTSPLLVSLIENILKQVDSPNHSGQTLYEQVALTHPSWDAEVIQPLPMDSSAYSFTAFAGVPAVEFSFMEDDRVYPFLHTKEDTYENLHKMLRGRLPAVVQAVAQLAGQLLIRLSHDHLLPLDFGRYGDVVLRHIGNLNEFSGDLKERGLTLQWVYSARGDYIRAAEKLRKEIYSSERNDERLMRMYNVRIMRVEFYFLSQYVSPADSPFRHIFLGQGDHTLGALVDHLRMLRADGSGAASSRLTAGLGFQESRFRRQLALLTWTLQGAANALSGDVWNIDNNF
Description: For this purpose, Tfr2-ECD is immobilized on a Series S Sensor Chip C1 (GE Healthcare), by means of coupling the amino groups at 25° C. The carboxyl groups on the chip surface are activated for 7 minutes using a mixture of 196 mM 1-ethyl-3-(3-dimethylaminopropyl) carbodiimide-hydrochloride and 50 mM n-hydroxysuccinimide at a flow rate of 10 μl/min. Subsequently, 5 μg/ml Tfr2-ECD, diluted with sodium acetate buffer (pH 4.5), is injected at a flow rate of 5 μl/min up to a relative occupancy of 200 RU. Non-reacted groups are inactivated by injecting 1 M thanolamine-HCl (pH 8.5) for 7 minutes at a flow rate of 10 μl/min. In order to prepare a reference surface, the same procedure is carried out but without Tfr2-ECD being injected.
The binding assays are carried out at 37° C. at a flow rate of 30 μl/min. Each analyte is diluted by a running buffer (HBS-P, pH 7.4 together with 50 nM FeCl3). […] The values of the binding level are read out, relative to the baseline, 10 s before the end of the injection and are corrected with respect to the molar mass. […] The binding parameters are determined using the Biacore™ T100 evaluation software 2.03. […]
For binding analysis, an injection of analyte for 240 s or 300 s over a Tfr2-ECD surface was followed by 1000 s dissociation. The values of the binding levels were recorded from referenced signals 10 s before the end of injection relative to baseline response. […]

Row | Compound | New bone formation in the muscle (trauma-induced HO, μCT) [1] | Number of chondrocytes (chondrogenic phase of HO) [2] | Production of cartilage (chondrogenic phase of HO) [2] | Binding response of BMPRs to Tfr2-ECD compared with BMPs (Tfr2-ECD)
1 | CC(C)Cc1ccc(C(C)C(=O)O)cc1 (centres unmarked) [ibuprofen] | did not prevent; also recorded: did not significantly reduce |  |  | 
2 | CC1(C)CCC(C)(C)c2cc(Cn3cccn3)c(/C=C/c3ccc(C(=O)O)cc3)cc21 [palovarotene, reference compound] | comparable | suppressed | suppressed | 
3 | BMPR-IA: BMP receptor type IA (R&D Systems), positive control in the BMP-2 ELISA |  |  |  | weaker than BMPs
